Laboratory results taken from patent publication EP3156398A1, “AGONISTS OF THE CHEMOKINE RECEPTOR CXCR3” (Friedrich-Alexander-Universität Erlangen-Nürnberg, priority 2015, dated 2017).

What was measured:
[1] = test system: HEK293 cells transiently transfected with CXCR3; assay: Transwell migration assay; format: cell-based, human; settings: for influence on CXCL11 induced migration: cells pre-incubated 15 minutes, compound in both chambers, CXCL11 as chemoattractant, Figure 5B; for induced migration compared to buffer control: compound applied to the source reservoir, on its own, 5 h, Figure 5A
Procedure: Transwell migration assay. HEK-293 cells were maintained in DMEM medium supplemented with 10% FBS and 1% penicillin/streptomycin. For DNA transfection, 5 µg plasmid DNA (CXCR3) was mixed with TE buffer to give a final of 105 µl solution and 15 µl CaCl2 (2M) was added. The DNA mixture was then dripped into 120 µl 2x HBSS solution, and the mixture was allowed to form calcium-phosphate precipitates for 45 minutes. The DNA/calcium-phosphate precipitate was dripped onto HEK293 cells (50% confluent in T25 flask), where the medium had been renewed and reduced to 1.5 ml 30 minutes prior to transfection. The cells were split and used for assays 48 h after transfection.
Migration of serum-starved HEK293 cell transiently transfected with CXCR3 was assessed using Transwell™ membranes (Costar; 8-µm pore). Filters were coated with 10 µg•mL^-1 fibronectin (in PBS 30 minutes at room temperature). The fibronectin solution was removed and the filters allowed to air-dry. The filters were placed in a 24-well dish that contained low serum (0.2%) DMEM supplemented with agonists or control buffer. HEK293 cells suspended in 0.2% serum DMEM containing test compounds were added to the upper chamber (1 × 10^5 cells/well). Cells were allowed to migrate for 5 h at 37 °C. Nonmigrated cells were removed from the top filter surface with a cotton swab. Migrated cells, attached to the bottom surface, were fixed in 3.7% formaldehyde (in PBS) and dyed with crystal violet. Transmigrated cells were counted in 5 predefined areas on the membrane using 20X objective.
To investigate the influence of FAUC1036 and FAUC1104 on CXCR3 induced migration, the inventors used these compounds alongside CXCL11 in a standard transwell assay with HEK293 cells transiently transfected with CXCR3. […] To test whether FAUC1036 and FAUC1104 influence CXCL11 induced migration, the inventors pre-incubated the cells with these compounds for 15 minutes and then set up the migration assay in the presence of either compound in both the top chamber (sink) containing the cells and in the lower chamber (source) containing CXCL11 as chemoattractant.

CXCR3-PK1 = target: T1, CXCR3-PK1 (Homo sapiens, UniProt P49682); assay: β-arrestin 2 recruitment assay (PathHunter, DiscoveRx), CXCR3-PK1 construct; format: cell-based; settings: for CXCR3-PK1 pEC50 ± SEM: HEK293-T cells, PathHunter, two to three experiments in triplicate
T1 construct: expressed in transfected cells; host or cells: HEK293 cells stably expressing beta-gal enzyme acceptor (PathHunter, DiscoveRx), transiently transfected
T1 sequence (P49682 1-368): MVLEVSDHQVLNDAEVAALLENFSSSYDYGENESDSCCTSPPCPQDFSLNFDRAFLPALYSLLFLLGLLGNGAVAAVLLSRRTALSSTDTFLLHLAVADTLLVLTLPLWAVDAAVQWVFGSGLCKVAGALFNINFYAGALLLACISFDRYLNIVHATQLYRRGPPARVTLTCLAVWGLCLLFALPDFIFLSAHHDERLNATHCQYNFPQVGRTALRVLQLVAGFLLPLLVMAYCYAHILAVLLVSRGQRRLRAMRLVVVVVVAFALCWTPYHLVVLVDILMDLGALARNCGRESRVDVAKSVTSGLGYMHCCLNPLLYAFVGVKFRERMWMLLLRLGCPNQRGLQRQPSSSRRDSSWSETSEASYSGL
Method in brief: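 HEK293 cells stably expressing β-gal enzyme acceptor, transiently transfected with PK1-tagged wild-type CXCR3, seeded overnight at 37°C. Test compounds or CXCL11 at various concentrations in PBS pH 7.4 with 0.20% BSA, 4 h; detection mix 60 min at room temperature. β-gal fragment complementation read by chemiluminescence.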

| CXCR3-PK1 efficacy (%) (CXCR3-PK1; % of CXCL11 mediated effect, CXCR3-PK1, listed as 11/FAUC103 6) | Emax (CXCR3-PK1; % of CXCL11 mediated effect, CXCR3-PK1, read-out: CXCR3-PK1 efficacy (%) (converted)) | CXCR3-PK1 pEC50 ± SEM (CXCR3-PK1; CXCR3-PK1, listed as 11/FAUC103 6) | CXCR3-PK1 pEC50 ± SEM (CXCR3-PK1; CXCR3-PK1, listed as FAUC1036) | SMILES | chemotaxis (result in words) [1] | influence on CXCL11 induced migration [1] | induced migration compared to buffer control [1] | β-arrestin 2 recruitment, intrinsic agonism (result in words) (CXCR3-PK1) | CXCR3-PK1 pEC50 ± SEM (CXCR3-PK1; CXCR3-PK1) |
| --- | --- | --- | --- | --- | --- | --- | --- | --- | --- |
| – | – | – | – | COc1ccc(C(=O)CCC(=O)N2Cc3ccccc3C[C@H]2C(=O)NCCCC[C@H](NC(=O)OC(C)(C)C)C(=O)NCC(c2ccccc2)c2ccccc2)cc1 [Compound 14, Tert-butyl ((S)-1-((2,2-diphenylethyl)amino)-6-((S)-2-(4-(4-methoxyphenyl)-4-oxobutanoyl)-1,2,3,4-tetrahydroisoquinoline-3-carboxamido)-1-oxohexan-2-yl)carbomate] | strong chemotaxis | significantly higher CXCL11 induced migration | approximately 0.25 fold | complete loss of intrinsic agonistic properties | No effect |
| 30±5% | 30% | 6.64±0.38 | 6.64 ± 0.38 | CC(C)(C)OC(=O)N[C@@H](CCCCNC(=O)[C@@H]1Cc2ccccc2CN1C(=O)CCC(=O)c1ccccc1)C(=O)NCC(c1ccccc1)c1ccccc1 [Compound 11, Tert-butyl ((S)-1-((2,2-diphenylethyl)amino)-1-oxo-6-((S)-2-(4-oxo-4-phenylbutanoyl)-1,2,3,4-tertahydroisoquinoline-3-carboxamido)hexan-2-yl)carbamate] | weak chemotaxis | no antagonizing effect | approximately 0.25 fold | activates the β2-arrestin recruitment | – |
